Reference: patent publication US10780090B2, “Heteroaryl compounds useful as inhibitors of SUMO activating enzyme” (Millennium Pharmaceuticals, Inc., priority 2014, dated 2020)
Structures can show the parent of a compound that is named as a salt.

Molecular target: recombinant human SAE enzyme (Homo sapiens (Human), UniProt Q9UBT2)
Assay: SAE HTRF enzyme assay
Assay type: biochemical
Conditions: for inhibition at 0.111 µM: read-out: Percent Inhibition
Method in brief: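 HTRF read-out using Eu-cryptate anti-Flag and allophycocyanin anti-GST antibodies, added with EDTA stop buffer and read after 2 h at 24 °C. The preceding reaction ran 105 min at 24 °C: 0.11 nM recombinant SAE, 0.5 μM ATP, Sumo-Flag, Ubc9-GST, pH 7.5. Values given as single-concentration inhibition or IC50.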

[1] = SAE inhibition at compound concentration 0.111 μM
[2] = SAE inhibition, class symbols, legend in nM

Chain of recombinant human SAE enzyme (Q9UBT2 whole entry): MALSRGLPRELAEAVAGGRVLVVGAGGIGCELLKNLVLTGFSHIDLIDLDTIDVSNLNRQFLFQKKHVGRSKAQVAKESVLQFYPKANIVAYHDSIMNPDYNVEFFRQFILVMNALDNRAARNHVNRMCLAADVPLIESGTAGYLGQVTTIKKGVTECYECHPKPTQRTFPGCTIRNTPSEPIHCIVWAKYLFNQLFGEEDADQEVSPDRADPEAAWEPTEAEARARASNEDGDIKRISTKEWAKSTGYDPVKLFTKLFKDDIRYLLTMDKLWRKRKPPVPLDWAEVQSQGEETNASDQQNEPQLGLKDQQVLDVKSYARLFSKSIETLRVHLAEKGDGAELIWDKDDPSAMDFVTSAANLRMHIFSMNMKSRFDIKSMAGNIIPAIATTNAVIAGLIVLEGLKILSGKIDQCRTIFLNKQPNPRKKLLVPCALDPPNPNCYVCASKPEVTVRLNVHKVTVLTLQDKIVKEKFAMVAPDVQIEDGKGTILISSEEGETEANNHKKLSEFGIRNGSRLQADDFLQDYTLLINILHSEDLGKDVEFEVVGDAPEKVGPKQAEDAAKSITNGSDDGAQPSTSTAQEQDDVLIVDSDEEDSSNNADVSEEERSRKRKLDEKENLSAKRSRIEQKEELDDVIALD
Chain of recombinant human SAE enzyme (Q9UBE0 whole entry partner): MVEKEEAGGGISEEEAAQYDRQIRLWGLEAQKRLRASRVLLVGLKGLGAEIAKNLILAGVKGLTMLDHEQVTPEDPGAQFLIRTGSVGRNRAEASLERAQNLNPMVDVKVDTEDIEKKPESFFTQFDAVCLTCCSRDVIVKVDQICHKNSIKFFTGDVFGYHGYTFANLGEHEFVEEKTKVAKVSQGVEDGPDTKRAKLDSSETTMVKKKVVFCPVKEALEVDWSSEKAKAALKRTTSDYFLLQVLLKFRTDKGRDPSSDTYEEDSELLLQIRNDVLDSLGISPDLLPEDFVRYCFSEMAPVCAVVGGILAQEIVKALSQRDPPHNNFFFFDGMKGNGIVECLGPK

Compound | Percent Inhibition [1] [%] | IC50 [2] [nM] | inhibition at 0.111 µM [1] [%] | Percent Inhibition (Concentration 0.111 μM) | IC50 (class symbols A/B/C) [nM]
NS(=O)(=O)OC[C@H]1C[C@@H](Nc2ncncc2C(=O)c2cc([C@@H]3OCCc4cc(Cl)ccc43)cs2)C[C@@H]1O [I-357, [(1R,2S,4R)-4-[[5-[4-[(1R)-6-chloroisochroman-1-yl]thiophene-2-carbonyl]pyrimidin-4-yl]amino]-2-hydroxy-cyclopentyl]methyl sulfamate and [(1R,2S,4R)-4-[[5-[4-[(1S)-6-chloroisochroman-1-ylthiophene-2-carbonyl]pyrimidin-4-yl]amino}-2-hydroxy-cyclopentyl]methyl sulfamate] | 97 | < 10 |  |  | 
Cc1sc(C(=O)c2cncnc2N[C@@H]2C[C@H](COS(N)(=O)=O)[C@@H](O)C2)cc1-c1nccc2ccc(Cl)cc12 [I-358, [(1R,2S,4R)-4-[[5-[4-(7-chloro-1-isoquinolyl)-5-methyl-thiophene-2-carbonyl]pyrimidin-4-yl]amino]-2-hydroxy-cyclopentyl]methyl sulfamate] |  | < 10 | 96 |  | 
Cc1sc(C(=O)c2cncnc2N[C@@H]2C[C@H](COS(N)(=O)=O)[C@@H](O)C2)cc1C1=NCCc2ccc(Cl)cc21 [I-360, ((1R,2S,4R)-4-{(5-(4-(7-chloro-3,4-dihydroisoquinolin-1-yl)-5-methylthiophene-2-carbonyl)pyrimidin-4-yl)amino)-2-hydroxycyclopentyl)methyl sulfamate] |  | < 10 | 95 |  | 
NS(=O)(=O)OC[C@H]1C[C@@H](Nc2ncncc2C(=O)c2cc([C@@H]3OCCc4ccc(Cl)cc43)c(C(F)F)s2)C[C@@H]1O [I-361, (1R,2S,4R)-4-[[5-[4-[(R)-7-chloroisochroman-1-yl]-5-(difluoromethyl)thiophene-2-carbonyl]pyrimidin-4-yl]amino]-2-hydroxy-cyclopentyl]methyl sulfamate and (1R,2S,4R)-4-[[5-[4-[(1S)-7-chloroisochroman-1-yl]-5-(difluoromethyl)thiophene-2-carbonyl]pyrimidin-4-yl]amino}-2-hydroxy-cyclopentyl]methyl sulfamate] | 95 | < 10 |  |  | 
Cc1sc(C(=O)c2cncnc2N[C@@H]2C[C@H](COS(N)(=O)=O)[C@@H](OC(=O)[C@H](C)N)C2)cc1[C@@H]1OCCc2ccc(Cl)cc21 [I-362, [(1S,2R,4R)-4-[5-[4-[(1R)-7-chloroisochroman-1-yl]-5-methyl-thiophene-2-carbonyl]pyrimidin-4-yl]amino]-2-(sulfamoyloxymethyl)cyclopentyl] (2S)-2-aminopropanoate; hydrochloride] | 91 | 10 to 100 |  |  | 
CC[C@H](C)[C@H](N)C(=O)O[C@H]1C[C@H](Nc2ncncc2C(=O)c2cc([C@@H]3OCCc4ccc(Cl)cc43)c(C)s2)C[C@@H]1COS(N)(=O)=O.Cl [I-363, [(1S,2R,4R)-4-[[5-[4-[(1R)-7-chloroisochroman-1-yl]-5-methyl-thiophene-2-carbonyl]pyrimidin-4-yl]amino]-2-(sulfamoyloxymethyl)cyclopentyl (2S,3S)-2-amino-3-methyl-pentanoate hydrochloride] |  | 100 to 1000 |  |  | 
CC[C@H](C)[C@H](N)C(=O)O[C@H]1C[C@H](Nc2ncncc2C(=O)c2cc([C@@H]3OCCc4ccc(Cl)cc43)c(C)s2)C[C@@H]1COS(N)(=O)=O.Cl [I-363] | 57 |  |  |  | 
Cc1sc(C(=O)c2cncnc2N[C@@H]2C[C@H](COS(N)(=O)=O)[C@@H](OC(=O)Cc3ccc(OP(=O)(O)O)cc3)C2)cc1[C@@H]1OCCc2ccc(Cl)cc21 [I-364, [(1S,2R,4R)-4-[[5-[4-[(1R)-7-chloroisochroman-1-yl]-5-methyl-thiophene-2-carbonyl]pyrimidin-4-yl]amino]-2-(sulfamoyloxymethyl)cyclopentyl] 2-(4-phosphonooxyphenyl)acetate] |  |  | 13 |  | 
NS(=O)(=O)OC[C@H]1C[C@@H](Nc2ncncc2C(=O)c2cc([C@H]3OCCc4cccc(Cl)c43)cs2)C[C@@H]1O [I-365, [(1R,2S,4R)-4-[[5-[4-[(1S)-chloroisochroman-1-yl]thiophene-2-carbonyl]pyrimidin-4-yl]amino]-2-hydroxy-cyclopentyl]methyl sulfamate and [(1R,2S,4R)-4-[[5-[4-[(1R)-8-chloroisochroman-1-yl]thiophene-2-carbonyl]pyrimidin-4-yl]amino]-2-hydroxy-cyclopentyl]methyl sulfamate] | 62 | 10 to 100 |  |  | 
[(1R,2S,4R)-2-hydroxy-4-({5-[(5-methyl-4-{(R)-[3-(trifluoromethyl)phenyl]sulfinyl}-2-thienyl)carbonyl]pyrimidin-4-yl}amino)cyclopentyl]methyl sulfamate and [(1R,2S,4R)-2-hydroxy-4-({5-[(5-methyl-4-{(S)-[3-(trifluoromethyl)phenyl]sulfinyl}-2-thienyl)carbonyl]pyrimidin-4-yl}amino)cyclopentyl]methyl sulfamate [I-69] |  |  |  | 100 | < 10
[(1R,2S,4R)-2-hydroxy-4-{[5-({4-[(1R)-2-methyl-2,3-dihydro-1H-isoindol-1-yl]-2-thienyl}carbonyl)pyrimidin-4-yl]amino}cyclopentyl]methyl sulfamate and [(1R,2S,4R)-2-hydroxy-4-{[5-({4-[(1S)-2-methyl-2,3-dihydro-1H-isoindol-1-yl]-2-thienyl}carbonyl)pyrimidin-4-yl]amino}cyclopentyl]methyl sulfamate [I-308] | 98 | < 10 |  |  | 
[(1R,2S,4R)-4-{[5-({4-[(1R)-7-bromo-1,2,3,4-tetrahydroisoquinolin-1-yl]-5-chloro-2-thienyl}carbonyl)pyrimidin-4-yl]amino}-2-hydroxycyclopentyl]methyl sulfamate and [(1R,2S,4R)-4-{[5-({4-[(1S)-7-bromo-1,2,3,4-tetrahydroisoquinolin-1-yl]-5-chloro-2-thienyl}carbonyl)pyrimidin-4-yl]amino}-2-hydroxycyclopentyl]methyl sulfamate [I-251] |  |  |  | 100 | < 10
[(1R,2S,4R)-4-{[5-({5-chloro-4-[(1R)-1-hydroxy-2-phenylethyl]-2-thienyl}carbonyl)pyrimidin-4-yl]amino}-2-hydroxycyclopentyl]methyl sulfamate and [(1R,2S,4R)-4-{[5-({5-chloro-4-[(1S)-1-hydroxy-2-phenylethyl]-2-thienyl}carbonyl)pyrimidin-4-yl]amino}-2-hydroxycyclopentyl]methyl sulfamate [I-136] |  |  |  | 96 | < 10
[(1R,2S,4R)-4-{[5-({5-chloro-4-[(1S)-1,2,3,4-tetrahydroisoquinolin-1-yl]-2-thienyl}carbonyl)pyrimidin-4-yl]amino}-2-hydroxycyclopentyl]methyl sulfamate and [(1R,2S,4R)-4-{[5-({5-chloro-4-[(1R)-1,2,3,4-tetrahydroisoquinolin-1-yl]-2-thienyl}carbonyl)pyrimidin-4-yl]amino}-2-hydroxycyclopentyl]methyl sulfamate [I-279] |  |  |  | 99 | < 10
{(1R,2S,4R)-4-[(5-{5-chloro-4-[(1R)-7-chloro-1,2,3,4-tetrahydroisoquinolin-1-yl]-2- [I-299] | 98 | < 10 |  |  | 
